Common to all, as to type: cell-based
For series [1], the species on record is Mus musculus. The series can be described thus: Induction of read through activity at premature termination codon TGA (non-sense mutation associated with DMD disease) in 27-mer DNA stretch sequence of mouse dystrophin mdx gene transfected as a plasmid by connecting with beta-galactosidase and luciferase genes in COS7 cells assessed as ratio of luciferase activity to beta-galactosidase activity at 200 uM incubated for 48 hrs by dual luciferase reporter gene assay relative to control.

The next series relates to COS-7. The series can be described thus: Cytotoxicity against African green monkey COS7 cells assessed as decrease in cell viability by WST1 assay. The note with it: Chlorocebus aethiops. In general terms: Tetrazolium dyes change colour on reduction, which living cells bring about.
For series [2], the species on record is Mus musculus. The series can be described thus: Induction of read through activity at premature termination codon TGA (non-sense mutation associated with DMD disease) in 27-mer DNA stretch sequence of mouse dystrophin mdx gene transfected as a plasmid by connecting with beta-galactosidase and luciferase genes in COS7 cells incubated for 48 hrs by dual luciferase reporter gene assay relative to TGP112. (A reporter such as luciferase makes a cellular process visible.)

Series [3] is filed under the species Homo sapiens. The series can be described thus: Induction of read through activity at premature termination codon TGA in human RLuc-LAMA2 C1546X non-sense mutation sequence transfected in COS7 cells at 200 uM incubated for 48 hrs by dual luciferase reporter gene assay relative to control.
Series [4] concerns HDQ-P1. The series can be described thus: Induction of read through activity at premature termination codon TGA in human HDQ-P1 cells harboring TP53 R213X homozygous non-sense mutation sequence assessed as expression of full length p53 protein at 200 uM incubated for 72 hrs by automated capillary electrophoresis western analysis relative to vinculin expression.
The species named for series [5] is Mus musculus. The series can be described thus: Induction of read through activity at premature termination codon TAG (non-sense mutation associated with DMD disease) in 27-mer DNA stretch sequence of mouse dystrophin mdx gene transfected as a plasmid by connecting with beta-galactosidase and luciferase genes in COS7 cells assessed as ratio of luciferase activity to beta-galactosidase activity at 200 uM incubated for 48 hrs by dual luciferase reporter gene assay relative to control.

For series [6], the species on record is Mus musculus. The series can be described thus: Induction of read through activity at premature termination codon TAA (non-sense mutation associated with DMD disease) in 27-mer DNA stretch sequence of mouse dystrophin mdx gene transfected as a plasmid by connecting with beta-galactosidase and luciferase genes in COS7 cells assessed as ratio of luciferase activity to beta-galactosidase activity at 200 uM incubated for 48 hrs by dual luciferase reporter gene assay relative to control.

Series [7] is filed under the species Homo sapiens. The series can be described thus: Induction of read through activity at premature termination codon TGA in human RLuc-TP53 R213X non-sense mutation sequence transfected in COS7 cells at 200 uM incubated for 48 hrs by dual luciferase reporter gene assay relative to control.
The species named for series [8] is Homo sapiens. The series can be described thus: Induction of read through activity at premature termination codon TAG in human RLuc-TP53 Q192X non-sense mutation sequence transfected in COS7 cells at 200 uM incubated for 48 hrs by dual luciferase reporter gene assay relative to control.
For series [9], the species on record is Homo sapiens. The series can be described thus: Induction of read through activity at premature termination codon TGA in human RLuc-CF G542X non-sense mutation sequence transfected in COS7 cells at 200 uM incubated for 48 hrs by dual luciferase reporter gene assay relative to control.
Series [10] deals with HDQ-P1. The series can be described thus: Cytotoxicity against human HDQ-P1 cells at 200 uM. The settings on record: hdq-p1, 200 µM.
For series [11], the species on record is Homo sapiens. The series can be described thus: Induction of read through activity at premature termination codon TGA in human RLuc-DMD R3381X non-sense mutation sequence transfected in COS7 cells at 200 uM incubated for 48 hrs by dual luciferase reporter gene assay relative to control.
For series [12], the species on record is Homo sapiens. The series can be described thus: Induction of read through activity at premature termination codon TGA in human RLuc-CF W1282X non-sense mutation sequence transfected in COS7 cells at 200 uM incubated for 48 hrs by dual luciferase reporter gene assay relative to control.
Series [13] deals with HDQ-P1. The series can be described thus: Induction of read through activity at premature termination codon TGA in human HDQ-P1 cells harboring TP53 R213X homozygous non-sense mutation sequence assessed as expression of full length p53 protein at 50 uM incubated for 72 hrs by automated capillary electrophoresis western analysis relative to vinculin expression.
In series [14] the test system is HDQ-P1. The series can be described thus: Induction of read through activity at premature termination codon TGA in human HDQ-P1 cells harboring TP53 R213X homozygous non-sense mutation sequence assessed as expression of full length p53 protein at 100 uM incubated for 72 hrs by automated capillary electrophoresis western analysis relative to vinculin expression.

The species entered for series [15] is Mus musculus. The series can be described thus: Induction of read through activity at premature termination codon TGA (non-sense mutation associated with DMD disease) in 27-mer DNA stretch sequence of mouse dystrophin mdx gene transfected as a plasmid by connecting with beta-galactosidase and luciferase genes in COS7 cells incubated for 48 hrs by dual luciferase reporter gene assay relative to (+)-negamycin.

Series [16] is filed under the species Mus musculus. The series can be described thus: Induction of read through activity at premature termination codon TGA (non-sense mutation associated with DMD disease) in 27-mer DNA stretch sequence of mouse dystrophin mdx gene transfected as a plasmid by connecting with beta-galactosidase and luciferase genes in COS7 cells incubated for 48 hrs by dual luciferase reporter gene assay relative to (+)-G418.

The subject of series [17] is HDQ-P1. The series can be described thus: Induction of read through activity at premature termination codon TGA in human HDQ-P1 cells harboring TP53 R213X homozygous non-sense mutation sequence assessed as expression of full length p53 protein at 12.5 uM incubated for 72 hrs by automated capillary electrophoresis western analysis relative to vinculin expression.
Series [18] has as its system HDQ-P1. The series can be described thus: Induction of read through activity at premature termination codon TGA in human HDQ-P1 cells harboring TP53 R213X homozygous non-sense mutation sequence at 200 uM incubated for 72 hrs by automated capillary electrophoresis western analysis relative to G418.
In series [19] the test system is HDQ-P1. The series can be described thus: Induction of read through activity at premature termination codon TGA in human HDQ-P1 cells harboring TP53 R213X homozygous non-sense mutation sequence assessed as expression of full length p53 protein at 25 uM incubated for 72 hrs by automated capillary electrophoresis western analysis relative to vinculin expression.
For series [20], the species on record is Mus musculus. The series can be described thus: Induction of read through activity at premature termination codon TGA (non-sense mutation associated with DMD disease) in 27-mer DNA stretch sequence of mouse dystrophin mdx gene transfected as a plasmid by connecting with beta-galactosidase and luciferase genes in COS7 cells incubated for 48 hrs by dual luciferase reporter gene assay.

Active and inactive are the calls of the source. The calls are words filed in the database; no cut-off is given here.

As for `CN(CC(=O)O)NC(=O)C[C@H](CCN)NC(=O)[C@@H](N)CCCN`, the Ratio in the series listed under Mus musculus [1] is 2.96.
Turning to `C[C@H](N)C(=O)N[C@@H](CCN)CC(=O)NN(C)CC(=O)O`, the Ratio in the series listed under Mus musculus [1] was 2.4.
As for `CN(CC(=O)O)NC(=O)C[C@H](CCN)NC(=O)[C@@H](N)CCC(N)=O`, the Ratio in the series filed under Mus musculus [1] is 1.62.
The same measure, in the same setting: to `CCCC[C@H](N)C(=O)N[C@@H](CCN)CC(=O)NN(C)CC(=O)O` belongs 4.21.
On the same count and under the same terms, to `CN(CC(=O)O)NC(=O)C[C@H](CCN)NC(=O)[C@@H](N)CC(=O)O` belongs 1.96.
Broadly, the IC50 is the concentration that gives 50% inhibition. In the case of `CCCCCCCCCCC[C@H](N)C(=O)N[C@@H](CCN)CC(=O)NN(C)CC(=O)O`, in the series on COS-7, the half-inhibitory concentration (IC50) was 68.2 µM.
For `CC[C@H](C)[C@H](N)C(=O)N[C@@H](CCN)CC(=O)NN(C)CC(=O)O`, the Ratio in the series listed under Mus musculus [1] was 1.83.
On the same count and under the same terms, to `CN(CC(=O)O)NC(=O)C[C@H](CCN)NC(=O)[C@@H](N)CCN` belongs 3.25; to `CC(C)C[C@H](N)C(=O)N[C@@H](CCN)CC(=O)NN(C)CC(=O)O`, 4.94.
Consider `CCCCCCC[C@H](N)C(=O)N[C@@H](CCN)CC(=O)NN(C)CC(=O)O`, for which the Ratio came to 7.97 in the series filed under Mus musculus [1] and 2 in the series filed under Mus musculus [2].
`CN(CC(=O)O)NC(=O)C[C@H](CCN)NC(=O)[C@@H](N)CO`: in the series filed under Mus musculus [1], the Ratio was 1.48.
Turning to `CN(CC(=O)O)NC(=O)C[C@H](CCN)NC(=O)[C@@H](N)CCC(=O)O`, the Ratio in the series listed under Mus musculus [1] worked out at 1.8.
Still for that read-out and setting: to `CN[C@@H](CC(C)C)C(=O)N[C@@H](CCN)CC(=O)NN(C)CC(=O)O` belongs 2.45; to `CN(CC(=O)O)NC(=O)C[C@H](CCN)NC(=O)[C@@H](N)CCCCN`, 2.49.
On the same count and under the same terms, the result for `CCCCC[C@H](N)C(=O)N[C@@H](CCN)CC(=O)NN(C)CC(=O)O` reads 3.4; that for `CN(CC(=O)O)NC(=O)C[C@H](CCN)NC(=O)[C@@H](N)Cc1ccc(O)cc1`, 2.59.
As for `CN(CC(=O)O)NC(=O)C[C@@H](N)CCN`, the results for the Activity in the series filed under Homo sapiens [3] and in the series filed under Homo sapiens [7] were 1.85% and 1.95%, respectively. Besides, the Ratio was 7.9 in the series with HDQ-P1 [4], 3.8 to 4.26 in the series listed under Mus musculus [1], 1.48 in the series listed under Mus musculus [5] and 1.2 in the series listed under Mus musculus [6].
For the molecule `CN(CC(=O)O)NC(=O)C[C@H](CCN)NC(=O)[C@@H](N)CC(N)=O`, the Ratio in the series filed under Mus musculus [1] was determined as 2.21.
Take `CC(C)C[C@@H](N)C(=O)N[C@@H](CCN)CC(=O)NN(C)CC(=O)O`: the Ratio in the series filed under Mus musculus [1] came out at 1.46.
On to `CC(C)CCC(=O)N[C@@H](CCN)CC(=O)NN(C)CC(=O)O`, for which, in the series listed under Mus musculus [1], the Ratio worked out at 2.82.
Take `CC(C)C[C@H](N)C(=O)N[C@@H](CCCN)CC(=O)NN(C)CC(=O)O`: the Ratio turned out to be 2.3 in the series filed under Mus musculus [1], 1.3 in the series listed under Mus musculus [5] and 1.11 in the series listed under Mus musculus [6].
Regarding `CN(CC(=O)O)NC(=O)C[C@H](CCN)NC(=O)[C@@H](N)CC1CCCCC1`, in the series listed under Mus musculus [1], the Ratio amounted to 5.87.
For the molecule `CN(CC(=O)O)NC(=O)C[C@H](CCN)NC(=O)[C@@H](N)CN`, the Ratio in the series listed under Mus musculus [1] was found to be 3.02.
Take `CN[C@H]1[C@H](O)[C@H](O[C@@H]2[C@@H](O)[C@H](O[C@H]3O[C@H]([C@@H](C)O)[C@@H](O)[C@H](O)[C@H]3N)[C@@H](N)C[C@H]2N)OC[C@@]1(C)O`: the Activity in the series filed under Homo sapiens [3] is 1.62 to 7.25%; in the series filed under Homo sapiens [8] it was 1.62 to 7.25%; in the series listed under Homo sapiens [9], 1.62 to 7.25%; in the series on HDQ-P1 [10] it was “Non-Toxic”; in the series filed under Homo sapiens [11], 1.62 to 7.25%; in the series listed under Homo sapiens [12] it was 1.62 to 7.25%. The molecule further returned an Activity in the series listed under Homo sapiens [7] of 1.62 to 7.25%. Further, the Ratio with HDQ-P1 [4] is 72; in the series filed under Mus musculus [1], 7.43 to 7.99; in the series listed under Mus musculus [5], 7.86; in the series listed under Mus musculus [6], 4.78.
Take `CN(CC(=O)O)NC(=O)C[C@H](CCN)NC(=O)[C@@H](N)Cc1ccccc1`: in the series listed under Mus musculus [1], the Ratio was found to be 2.99.
Take `CN(CC(=O)O)NC(=O)C[C@H](CCN)NC(=O)CN`: the Ratio in the series listed under Mus musculus [1] was found to be 2.74.
Turning to `CN(CC(=O)O)NC(=O)C[C@H](N)C[C@@H](O)CN`, the Ratio in the series listed under Mus musculus [1] was 1.47 to 2.25; in the series listed under Mus musculus [5], 1.17; in the series filed under Mus musculus [6], 1.13.
`CCCCCCCCC[C@H](N)C(=O)N[C@@H](CCN)CC(=O)NN(C)CC(=O)O`: the Activity was 6.34% in the series listed under Homo sapiens [3]; 2.25 to 7.3% in the series listed under Homo sapiens [9]; 2.25 to 7.3% in the series listed under Homo sapiens [11]; 2.25 to 7.3% in the series listed under Homo sapiens [7]; “Dose-dependent effect” in the series filed under Mus musculus [20]. Moreover, the Ratio was 6.7 in the series with HDQ-P1 [13]; 48 with HDQ-P1 [14]; 215 in the series with HDQ-P1 [4]; 16 to 18.3 in the series filed under Mus musculus [1]; 4.39 in the series listed under Mus musculus [5]; 2.24 in the series filed under Mus musculus [6]. The Ratio in the series listed under Mus musculus [15] was determined as 10; in the series listed under Mus musculus [16], 2; with HDQ-P1 [17], 2.3; in the series listed under Mus musculus [2], 4; with HDQ-P1 [18], 3; in the series on HDQ-P1 [19], 2.4. Besides, the result in the series filed under Homo sapiens [8] and in the series listed under Homo sapiens [12] was inactive.
On to `CC(C)[C@H](N)C(=O)N[C@@H](CCN)CC(=O)NN(C)CC(=O)O`, for which the Ratio in the series listed under Mus musculus [1] came out at 2.

(Values after ChEMBL document CHEMBL4364355, “New Negamycin-Based Potent Readthrough Derivative Effective against TGA-Type Nonsense Mutations” (ACS Med Chem Lett, 2019).)
